Experimental data reported in ChEMBL document CHEMBL3132775, “Design, synthesis and biochemical investigation, by in vitro luciferase reporter system, of peptide nucleic acids as new inhibitors of miR-509-3p involved in the regulation of cystic fibrosis disease-gene expression” (Medchemcomm, 2014).
Calls of active or inactive are those of the source. No cut-off for these calls is given here.

Columns and labels:
A549 [1] = test: Inhibition of miR-509-3p (unknown origin) transfected in human A549 cells at 10 to 50 uM by dual luciferase reporter gene assay; type: cell-based
[2] = Binding affinity to miR-509-3p (unknown origin) assessed as heteroduplex formation at 1:15 and 1:5 ratio after 2 hrs by EMSA
A549 [3] = test: Inhibition of miR-509-3p (unknown origin) transfected in human A549 cells at 100 uM after 12 hrs by fluorescence microscopy; type: cell-based
[4] = Binding affinity to miR-509-3p (unknown origin) assessed as apparent melting temperature by UV-spectrophotometeric analysis
[5] = Binding affinity to miR-509-3p (unknown origin) assessed as heteroduplex formation by CD spectra analysis
A549 [6] = test: Inhibition of miR-509-3p (unknown origin) transfected in human A549 cells assessed as luciferase activity at 50 uM by dual luciferase reporter gene assay; type: cell-based; parameters: scale not given: the % may be the effect or the level left
A549 [7] = test: Inhibition of miR-509-3p (unknown origin) transfected in human A549 cells by dual luciferase reporter gene assay; type: cell-based

| Compound | inhibition (A549 [1]) | Activity [2] | inhibition (A549 [3]) | Tm(app) [4] | Activity [5] | Activity (A549 [6]) | inhibition (A549 [7]) |
| --- | --- | --- | --- | --- | --- | --- | --- |
| Cc1cn(CC(=O)N(CCNC(=O)CN(CCNC(=O)CN(CCNC(=O)CN(CCNC(=O)CN(CCNC(=O)CN(CCNC(=O)CN(CCNC(=O)CN(CCNC(=O)CN(CCNC(=O)CN(CCNC(=O)CN(CCNC(=O)CN(CCNC(=O)COCCOCCNC(=S)Nc2ccc(C3c4ccc(O)cc4Oc4cc(O)ccc43)c(C(=O)O)c2)C(=O)Cn2cnc3c(N)ncnc32)C(=O)Cn2cnc3c(=O)[nH]c(N)nc32)C(=O)Cn2cnc3c(N)ncnc32)C(=O)Cn2ccc(N)nc2=O)C(=O)Cn2cnc3c(=O)[nH]c(N)nc32)C(=O)Cn2cc(C)c(=O)[nH]c2=O)C(=O)Cn2cnc3c(N)ncnc32)C(=O)Cn2ccc(N)nc2=O)C(=O)Cn2ccc(N)nc2=O)C(=O)Cn2cnc3c(N)ncnc32)C(=O)Cn2cnc3c(N)ncnc32)CC(=O)NCCN(CC(=O)NCCN(CC(=O)N[C@@H](CCCCN)C(=O)N[C@@H](CCCCN)C(N)=O)C(=O)Cn2cnc3c(N)ncnc32)C(=O)Cn2ccc(N)nc2=O)c(=O)[nH]c1=O | Active | Active | inactive | 80 °C | Active | – | – |
| Cc1cn(CC(=O)N(CCNC(=O)CN(CCNC(=O)CN(CCNC(=O)CN(CCNC(=O)CN(CCNC(=O)CN(CCNC(=O)CN(CCNC(=O)COCCOCCNC(=S)Nc2ccc(C3c4ccc(O)cc4OC4=CC(=O)C=CC43)c(C(=O)O)c2)C(=O)Cn2ccc(N)nc2=O)C(=O)Cn2cnc3c(N)ncnc32)C(=O)Cn2ccc(N)nc2=O)C(=O)Cn2cnc3c(=O)[nH]c(N)nc32)C(=O)Cn2cnc3c(=O)[nH]c(N)nc32)C(=O)Cn2cnc3c(N)ncnc32)CC(=O)NCCN(CC(=O)NCCN(CC(=O)NCCN(CC(=O)NCCN(CC(=O)NCCN(CC(=O)NCCN(CC(=O)NCCN(CC(=O)NCC(=O)NC(COP(=O)(O)O)C(=O)NC(COP(=O)(O)O)C(=O)NCC(N)=O)C(=O)Cn2cc(C)c(=O)[nH]c2=O)C(=O)Cn2cnc3c(=O)[nH]c(N)nc32)C(=O)Cn2ccc(N)nc2=O)C(=O)Cn2ccc(N)nc2=O)C(=O)Cn2cnc3c(=O)[nH]c(N)nc32)C(=O)Cn2cnc3c(N)ncnc32)C(=O)Cn2cnc3c(=O)[nH]c(N)nc32)c(=O)[nH]c1=O (stereo unspecified) | – | – | – | – | – | < 40% | – |
| Cc1cn(CC(=O)N(CCNC(=O)CN(CCNC(=O)CN(CCNC(=O)CN(CCNC(=O)CN(CCNC(=O)CN(CCNC(=O)CN(CCNC(=O)CN(CCNC(=O)CN(CCNC(=O)CN(CCNC(=O)CN(CCNC(=O)CN(CCNC(=O)COCCOCCNC(=S)Nc2ccc(C3c4ccc(O)cc4OC4=CC(=O)C=CC43)c(C(=O)O)c2)C(=O)Cn2cnc3c(N)ncnc32)C(=O)Cn2cnc3c(=O)[nH]c(N)nc32)C(=O)Cn2cnc3c(N)ncnc32)C(=O)Cn2ccc(N)nc2=O)C(=O)Cn2cnc3c(=O)[nH]c(N)nc32)C(=O)Cn2cc(C)c(=O)[nH]c2=O)C(=O)Cn2cnc3c(N)ncnc32)C(=O)Cn2ccc(N)nc2=O)C(=O)Cn2ccc(N)nc2=O)C(=O)Cn2cnc3c(N)ncnc32)C(=O)Cn2cnc3c(N)ncnc32)CC(=O)NCCN(CC(=O)NCCN(CC(=O)NCC(=O)NC(COP(=O)(O)O)C(=O)NC(COP(=O)(O)O)C(=O)NCC(N)=O)C(=O)Cn2cnc3c(N)ncnc32)C(=O)Cn2ccc(N)nc2=O)c(=O)[nH]c1=O (stereo unspecified) | – | Active | inactive | 74 °C | Active | – | Dose-dependent effect |
